# Source: publication PMC3621862, “Re-Directing an Alkylating Agent to Mitochondria Alters Drug Target and Cell Death Mechanism” (PLoS ONE, 2013)
# “Also recorded” adds a separate entry of the source. Like-named read-outs stand apart in the source and are kept apart here. Square brackets hold non-standard residues; d marks the D form. Peptide text beside a SMILES is read from it. * marks the point of attachment. ξ: configuration not given here. Chlorambucil = O=C(CCCc1ccc(N(CCCl)CCCl)cc1)*; ξCha = NC(CC1CCCCC1)C(=O)O
# Columns and labels:
# [1] = Pharmacokinetic study, plasma levels by HPLC-MS/MS; type: in vivo; details: mouse, ip, CD1 mice, single dose 10 mg/kg intraperitoneal; for AUC: unit inferred
# Experimental: Animal handling and dose administration was performed by Kard Scientific (Beverly, MA). Six CD1 mice were treated with a single dose of 10 mg/kg mt-Cbl or Cbl via intraperitoneal injection. Blood samples were collected at 15 min, 30 min, 1 h, 2 h, 4 h and 8 h in heparin-treated tubes. Samples were kept on ice until centrifugation at 1,500 rpm for 20 min, 4°C and the resulting plasma supernatants were transferred to fresh tubes. Plasma proteins were precipitated with four volumes of ice-cold acetonitrile and spun at 10,000×g for 10 min, 4°C. The resulting supernatant was analyzed via HPLC-MS/MS to determine plasma concentrations of Cbl and mt-Cbl.
# [2] = system: caspase 3/7 activity in HeLa cells; assay: Caspase-Glo 3/7 activity assay; type: cell-based; details: 6 hours
# Experimental: (§1) HeLa cells were seeded at 7500 cells/well a day prior to experiments in white flat clear-bottom 96-well plates (Greiner Bio one). Cells were incubated with Cbl, Cbl conjugates, staurosporin or digitonin as appropriate at indicated concentrations. Cellular ATP levels and protease activity were measured after a 90 minute incubation using the Mitochondrial ToxGlo assay (Promega) as per manufacturer's instructions. To assess caspase 3/7 activity, cells were incubated with compound for 6 hours prior to measurement with the Caspase-Glo® 3/7 Assay (Promega) as per manufacturer's instructions.
# [3] = Rate of hydrolysis in saline or plasma (HPLC-MS/MS); type: in vitro ADME, mouse; details: 37°C
# Experimental: Stability of mt-Cbl and MPP in mouse plasma: Thiazole orange-labelled conjugates were incubated in mouse plasma for three weeks at room temperature. The stability of these compounds was then assessed via reverse-phase HPLC. A single peak with the identical retention time to a fresh conjugate control was considered to be a positive result for stability in mouse plasma. Rate of mt-Cbl and Cbl hydrolysis in saline or plasma: Cbl and mt-Cbl were incubated in saline or plasma for 0 h, 0.5 h, 1 h, 1.5 h, 2 h, 2.5 h and 3 h at 37°C. Following this, plasma proteins were precipitated in four volumes of ice-cold acetonitrile and centrifuged at 10,000×g for 10 min, 4°C. The resulting supernatant was analyzed via HPLC-MS/MS to determine active drug concentrations in each sample.
# [4] = Biodistribution in K562 xenograft mice; type: in vivo, mouse; details: K562 xenograft NOD/SCID mice; mt-Cbl 15 mg/kg, Cbl 100 mg/kg i.p. daily for 10 days
# Experimental: K562 cells (3×10^6) were injected subcutaneously into the flanks of ten NOD/SCID mice (Ontario Cancer Institute, Toronto, ON). Palpable tumours were formed 7 days after injection and mice were then treated daily for 10 days with Cbl (100 mg/kg) or mt-Cbl (15 mg/kg) by intraperitoneal injection. Mice were sacrificed 17 days after injection of cells and organs were excised for analysis of Cbl and mt-Cbl biodistribution profiles. The liver, kidneys, spleen, heart, lungs and brain were removed from mice following sacrifice and immediately frozen in dry ice until analysis. Tissues were homogenized in four volumes of ice-cold acetonitrile and centrifuged at 10,000×g for 10 min, 4°C. The resulting supernatant was analyzed via HPLC-MS/MS to determine drug concentrations in each tissue.
# Maximal tolerated dose = details: mouse, in vivo, ip; NOD/SCID mice, intraperitoneal
# Experimental: Non-obese diabetic/severe combined immunodeficiency (NOD/SCID) mice were treated intraperitoneally with increasing concentrations of Cbl (10–500 mg/kg) or mt-Cbl (10–50 mg/kg). Animals were monitored daily for weight loss, lethargy and other signs of physical discomfort. […] All animal studies were carried out according to the regulations of the Canadian Council on Animal Care and with the approval of the Ontario Cancer Institute Animal Ethics Review board or the Faculty of Medicine Animal Care Committee at the University of Toronto.
# mouse livers = assay: Liver toxicity: H&E histology and plasma liver enzymes; type: in vivo; details: mt-Cbl 15 mg/kg, Cbl 3.7 mg/kg every other day for 21 days
# Experimental: Mice were treated every other day with equimolar doses of either mt-Cbl (15 mg/kg), Cbl (3.7 mg/kg) or vehicle control for 21 days by Kard Scientific (Beverly, MA). Following sacrifice, mouse livers and K562 xenograft tumors were fixed in 10% formalin overnight and then transferred to 70% ethanol. Samples were then paraffin-embedded, sectioned and stained in a standard manner by the Pathology Research Program Laboratory at Toronto General Hospital. Biotin-conjugated secondary antibodies, avidin horseradish peroxidase and the chromogenic diaminobenzidine tetrahydrochloride (DAB) were used for detection. Slides were imaged at 20× and then analyzed using Aperio ImageScope Software (Aperio Technologies, Vista, California). Positive pixels were identified and counted using the Positive Pixel Count V9 algorithm in this software. Quantification was performed on ten representative squares of 2500×2500 μm each and an average was calculated. % Positive Pixels was determined by dividing the positive pixel count by the total number of pixels analyzed. A standard hematoxylin and eosin (H&E) staining was performed on liver sections and these were reviewed for hepatotoxicity and injury by a pathologist with liver expertise. In addition, liver toxicity was evaluated though determination of levels of specific liver enzymes. Mice were treated every other day with equimolar doses of either mt-Cbl (15 mg/kg), Cbl (3.7 mg/kg) or vehicle control for 21 days. Three days after the final dose, mouse plasma samples were tested for levels of bilirubin, alkaline phosphatase and aspartate transaminase in a standard manner.
# [5] = system: caspase-3 and PARP-1 cleavage in HeLa cells; type: cell-based
# leukemia = system: leukemia; parameters: method as in PMID 8241831; details: cited from earlier work
# [6] = in water; cited from earlier work
# [7] = system: 143B cells and 143B ρ° cells; assay: CCK-8 cell viability in 143B parental and ρ° cells; type: cell-based; details: overnight incubation, various doses
# HeLa cells [8] = assay: Mitochondrial ToxGlo assay, protease activity and cellular ATP levels; type: cell-based; details: 90 minutes, various doses (over EC50)
# Experimental: as §1
# [9] = system: mitochondrial proteins of HL-60 cells; assay: Cbl-conjugate labeling of mitochondrial proteins (immunoblot); type: cell-based; details: HL60 cells, 30 min; biotin-labeled mt-Cbl 1.5 μM or Cbl-TPP 10 uM
# Experimental: HL-60 cells (25 million cells) were incubated with biotin-labeled mt-Cbl peptide (Biotin-mt-Cbl) (0, 1.5 μM) or Cbl-TPP (10 uM) for 30 min, after which the cells were collected. The cells were then washed with ice-cold PBS, and their mitochondria were isolated using Mitochondrial Isolation Kit for Mammalian Cells (Thermo Scientific). The mitochondrial pellets were then lysed using RIPA buffer plus protease inhibitors for 30 min. at 4°C and the total protein concentration determined using BCA assay. Lysates (10 μg of total protein) were then loaded onto 7% gels and run at 30 V for 30 min. and 150 V for 1 hour using a tris-tricine buffer system (Cathode buffer: 0.1 M Tris, 0.1 M Tricine, and 0.1% SDS, Anode buffer: 0.2 M Tris-Cl, pH8.9). Immunoblotting was continued as described previously using biotin antibody to detect the biotin tag on mt-Cbl or TPP antibody to detect Cbl-TPP.
# mtDNA of HL-60 cells = assay: Cbl-conjugate labeling of mtDNA (dot blot with TPP antibody); type: cell-based; details: 10 uM, 30 min
# Experimental: HL-60 cells (25 million cells) were incubated with Cbl-TPP (10 uM) for 30 min, after which the cells were collected. The cells were then washed with ice-cold PBS, and their mitochondria were isolated using Mitochondrial Isolation Kit for Mammalian Cells (Thermo Scientific). The mtDNA was extracted from the mitochondrial pellets using AllPrep DNA/RNA Mini Kit (QIAGEN). DNA concentration was measured using a NanoDrop 1000 Spectrophotometer (Thermo Scientific) and then normalized (10 ng/μl). After this, a nitrocellulose membrane was spotted with untreated and treated DNA and UV crosslinked using UV Stratalinker 1800 (Stratagene) The membrane was blocked with 5% BSA-TBST for 1 hr at room temperature and then probed with TPP antibody (1∶5000) at 4°C overnight. Then the membrane was washed and visualized with chemiluminescence detection (GE Amersham).
# [10] = Alkylation activity with 4-(4-nitrobenzyl)pyridine; details: absorbance of 4-(4-nitrobenzyl)pyridine
# Text: Supplementary file pone.0060253.s005.pdf: Figure S5 Characterization of Cbl-TPP. (a) Chemical structure of Cbl-TPP . Cbl was conjugated to a triphenylphosphonium ion to generate Cbl-TPP. (b) Alkylation activity of Cbl, mt-Cbl and Cbl-TPP.
# HeLa cells [11] = details: 18 hours treatment
# [12] = Stability in mouse plasma over three weeks (HPLC); details: three-week incubation, HPLC single peak
smiles,measurement,setting,value
"O=C(O)CCCc1ccc(N(CCCl)CCCl)cc1 [Cbl, chlorambucil, reference compound]",Cmax,[1],200 ng/mL
same,half-life,[1],0.75 h
same,AUC,[1],147 ng·h/mL
same,Caspase-3/7 activity,[2],increase in caspase-3/7 activity in a dose-dependent manner
same,half-life,[3]; mouse plasma,1 h
same,half-life,"[3]; mouse, saline",1 h
same,Accumulation in liver,[4],site of greatest accumulation
same,Levels in kidneys,[4],very low levels
same,MTD,Maximal tolerated dose,400 mg/kg
same,Liver histology (H&E),mouse livers,histologically normal with no features of injury or toxicity
same,"Plasma levels of bilirubin, alkaline phosphatase and aspartate aminotransferase",mouse livers,No significant change
same,Cleavage of caspase-3 and PARP-1,"[5]; HeLa, Cbl 750 μM, 8 hours, Q-VD-Oph 20 μM pretreatment",induced the cleavage and activation of caspase-3
same,Initial response rate in patients,leukemia,40–60%
same,half-life,[6],0.5 h
O=C(CCCc1ccc(N(CCCl)CCCl)cc1)NCCC[P+](c1ccccc1)(c1ccccc1)c1ccccc1 [Cbl-TPP],Toxicity in 143B parental versus mtDNA-free ρ° derivative,[7],overlapping toxicity profiles
same,Cellular ATP level,HeLa cells [8],drastic drop in ATP cellular levels
same,Protease activity,HeLa cells [8],significant increase in protease activity
same,Alkylation of mitochondrial proteins,[9],Alkylation of both mtDNA and proteins
same,Alkylation of mtDNA,mtDNA of HL-60 cells,Alkylation of both mtDNA and proteins
same,Alkylation activity (rate of alkylation),[10],retained alkylation activity very similar to that observed with the MPP conjugated form of mt-Cbl; also recorded: reduces its alkylation activity
CC(=O)NC(CC1CCCCC1)C(=O)N[C@H](CCCNC(=N)N)C(=O)NC(CC1CCCCC1)C(=O)N[C@H](CCCNC(=N)N)C(=O)NC(CC1CCCCC1)C(=O)N[C@H](CCCNC(=N)N)C(N)=O (stereo partly drawn) [MPP] (Ac-[ξCha][dR][ξCha][dR][ξCha][dR]-NH2; N-terminus and C-terminus assumed),Stability in mouse plasma,,stable
CC(C)[C@H](NC(=O)c1ccc2ccccc2n1)C(=O)N[C@@H](CC(=O)O)C(=O)COc1c(F)cccc1F [Q-VD-Oph],Cleavage of caspase-3 and PARP-1,[5],suppressed the effects of Cbl treatment
N=C(N)NCCC[C@@H](NC(=O)C(CC1CCCCC1)NC(=O)[C@@H](CCCNC(=N)N)NC(=O)C(CC1CCCCC1)NC(=O)[C@@H](CCCNC(=N)N)NC(=O)C(CC1CCCCC1)NC(=O)CCCc1ccc(N(CCCl)CCCl)cc1)C(N)=O (stereo partly drawn) [mt-Cbl] (Chlorambucil-[ξCha][dR][ξCha][dR][ξCha][dR]-NH2),Cmax,[1]; in vivo,800 ng/mL
same,half-life,[1]; in vivo,6 h
same,AUC,[1]; in vivo,3560 ng·h/mL
same,Half-life (hydrolysis),[3]; mouse plasma,1 h
same,half-life,"[3]; mouse, plasma, saline",1 h
same,Accumulation in liver,[4],site of greatest accumulation
same,Accumulation in tumors compared to Cbl,[4],~250 fold
same,Levels in kidneys,[4],very low levels
same,MTD,Maximal tolerated dose,50 mg/kg
same,Liver histology (H&E),mouse livers,histologically normal with no features of injury or toxicity
same,"Plasma levels of bilirubin, alkaline phosphatase and aspartate aminotransferase",mouse livers,No significant change
same,LD50,HeLa cells [11]; HeLa after siEXOG transfection,4.7 µM
same,LD50,HeLa cells [11]; HeLa after siNT (untargeted siRNA control) transfection,3.5 µM
same,Stability in mouse plasma,[12],stable in mouse plasma
